From patent publication US9809587B2, “Pesticidally active heterocyclic derivatives with sulphur containing substituents” (Syngenta Participations AG, priority 2014, dated 2017)

What was measured:
Format in all cases: in vivo
[1] = tested on: Spodoptera littoralis (Egyqptian Cotton Leaf Worm); test: Spodoptera littoralis (Egyptian cotton leaf worm), sprayed cotton leaf discs; details: foliar, 72 h, application rate of 200 ppm, L1 larvae on cotton leaf discs, 3 days after infestation
Procedure: Example B7: Spodoptera littoralis (Egyqptian Cotton Leaf Worm)
Cotton leaf discs were placed on agar in 24-well microtiter plates and sprayed with aqueous test solutions prepared from 10′000 ppm DMSO stock solutions. After drying the leaf discs were infested with five L1 larvae. The samples were assessed for mortality, anti-feedant effect, and growth inhibition in comparison to untreated samples 3 days after infestation. Control of Spodoptera littoralis by a test sample is when at least one of mortality, anti-feedant effect, and growth inhibition is higher than the untreated sample.

[2] = tested on: Plutella xylostella (Diamond Back Moth); test: Plutella xylostella (diamond back moth), treated artificial diet; details: 120 h, application rate of 200 ppm, L2 larvae on artificial diet, 5 days after infestation, read-out: effect in at least one of the two categories (mortality or growth inhibition)
Procedure: Example B6: Plutella xylostella (Diamond Back Moth)
(§1) 24-well microtiter plates with artificial diet were treated with aqueous test solutions prepared from 10′000 ppm DMSO stock solutions by pipetting. After drying, the plates were infested with L2 larvae (10 to 15 per well). The samples were assessed for mortality and growth inhibition in comparison to untreated samples 5 days after infestation.
The following compounds gave an effect of at least 80% in at least one of the two categories (mortality or growth inhibition) at an application rate of 200 ppm: […]

[3] = tested on: Myzus persicae (Green Peach Aphid); test: Myzus persicae (green peach aphid), sprayed sunflower leaf discs; details: foliar, 144 h, application rate of 200 ppm, mixed ages on sunflower leaf discs, 6 days after infestation
Procedure: Example B4: Myzus persicae (Green Peach Aphid)
Sunflower leaf discs were placed on agar in a 24-well microtiter plate and sprayed with aqueous test solutions prepared from 10′000 ppm DMSO stock solutions. After drying, the leaf discs were infested with an aphid population of mixed ages. The samples were assessed for mortality 6 days after infestation.

[4] = tested on: Diabrotica balteata (Corn Root Worm); test: Diabrotica balteata (corn root worm), sprayed maize sprouts; details: 96 h, application rate of 200 ppm, L2 larvae on maize sprouts, 4 days after infestation
Procedure: Example B2: Diabrotica balteata (Corn Root Worm)
as §1, with “Maize sprouts, placed on an agar layer in 24-well” for “24-well”, “plates” for “plates with artificial diet”, “spraying.” for “pipetting.”, “(6” for “(10”, “10” for “15”, “4” for “5”

[5] = tested on: Euschistus heros (Neotropical Brown Stink Bug); test: Euschistus heros (neotropical brown stink bug), sprayed soybean leaf; details: 120 h, application rate of 200 ppm, N-2 nymphs on soybean leaf, 5 days after infestation
Procedure: Example B3: Euschistus heros (Neotropical Brown Stink Bug)
Soybean leaf on agar in 24-well microtiter plates were sprayed with aqueous test solutions prepared from 10′000 ppm DMSO stock solutions. After drying the leaf were infested with N-2 nymphs. The samples were assessed for mortality in comparison to untreated samples 5 days after infestation.

CCS(=O)(=O)c1cc(-c2ccc(OC)nc2)cnc1-c1nc2cc(C(F)(F)F)ncc2n1C [Compound P1, 2-[3-ethylsulfonyl-5-(6-methoxy-3-pyridyl)-2-pyridyl]-3-methyl-6-(trifluoromethyl)imidazo[4,5-c]pyridine]
≥ 80%: percent control (mortality, anti-feedant effect or growth inhibition) at 200 ppm [1] | percent effect (mortality or growth inhibition) at 200 ppm [2] | mortality at 200 ppm [3] | mortality at 200 ppm [4]

CCS(=O)(=O)c1cc(-c2cnc(Cl)c(C)c2)cnc1-c1nc2cc(C(F)(F)F)ncc2n1C [Compound P4]
≥ 80%: percent control (mortality, anti-feedant effect or growth inhibition) at 200 ppm [1] | percent effect (mortality or growth inhibition) at 200 ppm [2] | mortality at 200 ppm [3] | mortality at 200 ppm [5]

CCS(=O)(=O)c1cc(-c2cncc3ccccc23)cnc1-c1nc2cc(C(F)(F)F)ncc2n1C [Compound P7]
≥ 80%: percent control (mortality, anti-feedant effect or growth inhibition) at 200 ppm [1] | percent effect (mortality or growth inhibition) at 200 ppm [2] | mortality at 200 ppm [4]

CCS(=O)(=O)c1cc(-c2ccc(-c3ccc(F)cc3)nc2)cnc1-c1nc2cc(C(F)(F)F)ncc2n1C [Compound P12]
≥ 80%: percent control (mortality, anti-feedant effect or growth inhibition) at 200 ppm [1] | percent effect (mortality or growth inhibition) at 200 ppm [2] | mortality at 200 ppm [3] | mortality at 200 ppm [4] | mortality at 200 ppm [5]

CCSc1cc(-n2nc(C)cc2C)cnc1-c1nc2cc(C(F)(F)F)ncc2n1C [Compound P13]
≥ 80%: mortality at 200 ppm [4]

CCSc1cc(-n2cc(Cl)cn2)cnc1-c1nc2cc(C(F)(F)F)ncc2n1C [Compound P14, 2-[5-(4-chloropyrazol-1-yl)-3-ethylsulfanyl-2-pyridyl]-3-methyl-6-(trifluoromethyl)imidazo[4,5-c]pyridine]
≥ 80%: percent control (mortality, anti-feedant effect or growth inhibition) at 200 ppm [1] | percent effect (mortality or growth inhibition) at 200 ppm [2] | mortality at 200 ppm [4]

CCS(=O)(=O)c1cc(-n2nc(C)cc2C)cnc1-c1nc2cc(C(F)(F)F)ncc2n1C [Compound P15]
≥ 80%: percent control (mortality, anti-feedant effect or growth inhibition) at 200 ppm [1] | percent effect (mortality or growth inhibition) at 200 ppm [2] | mortality at 200 ppm [3] | mortality at 200 ppm [4] | mortality at 200 ppm [5]

CCS(=O)(=O)c1cc(-c2nc(C)cc(C3CC3)n2)cnc1-c1nc2cc(C(F)(F)F)ncc2n1C [Compound P23, 2-[5-(4-cyclopropyl-6-methyl-pyrimidin-2-yl)-3-ethylsulfonyl-2-pyridyl]-3-methyl-6-(trifluoromethyl)imidazo[4,5-c]pyridine]
≥ 80%: percent control (mortality, anti-feedant effect or growth inhibition) at 200 ppm [1] | percent effect (mortality or growth inhibition) at 200 ppm [2] | mortality at 200 ppm [3] | mortality at 200 ppm [4] | mortality at 200 ppm [5]

CCS(=O)(=O)c1cc(-n2ncc3ccccc32)cnc1-c1nc2cc(C(F)(F)F)ncc2n1C [Compound P24]
≥ 80%: percent control (mortality, anti-feedant effect or growth inhibition) at 200 ppm [1] | percent effect (mortality or growth inhibition) at 200 ppm [2]

CCS(=O)(=O)c1cc(-n2nc(C(F)(F)F)cc2-c2ccc(F)cc2)cnc1-c1nc2cc(C(F)(F)F)ncc2n1C [Compound P28]
≥ 80%: percent control (mortality, anti-feedant effect or growth inhibition) at 200 ppm [1] | percent effect (mortality or growth inhibition) at 200 ppm [2] | mortality at 200 ppm [4]

CCS(=O)(=O)c1cc(-n2ncc3cnc(C(F)(F)F)cc32)cnc1-c1nc2cc(C(F)(F)F)ncc2n1C [Compound P29]
≥ 80%: percent control (mortality, anti-feedant effect or growth inhibition) at 200 ppm [1] | percent effect (mortality or growth inhibition) at 200 ppm [2] | mortality at 200 ppm [4]

CCS(=O)(=O)c1cc(-c2c(C(F)(F)F)n[nH]c2C)cnc1-c1nc2cc(C(F)(F)F)ncc2n1C [Compound P30]
≥ 80%: mortality at 200 ppm [3] | mortality at 200 ppm [4] | mortality at 200 ppm [5]

CCS(=O)(=O)c1cc(-c2cnc3nc(C(F)(F)F)ccn23)cnc1-c1nc2cc(C(F)(F)F)ncc2n1C [Compound P36]
≥ 80%: percent control (mortality, anti-feedant effect or growth inhibition) at 200 ppm [1] | percent effect (mortality or growth inhibition) at 200 ppm [2] | mortality at 200 ppm [3] | mortality at 200 ppm [4] | mortality at 200 ppm [5]

CCS(=O)(=O)c1cc(-c2cnc3nc(C(F)(F)F)cnn23)cnc1-c1nc2cc(C(F)(F)F)ncc2n1C [Compound P38]
≥ 80%: percent control (mortality, anti-feedant effect or growth inhibition) at 200 ppm [1] | percent effect (mortality or growth inhibition) at 200 ppm [2] | mortality at 200 ppm [4] | mortality at 200 ppm [5]

CCS(=O)(=O)c1cc(-c2ccc3nccn3c2C)cnc1-c1nc2cc(C(F)(F)F)ncc2n1C [Compound P42]
≥ 80%: mortality at 200 ppm [3] | mortality at 200 ppm [5]

CCS(=O)(=O)c1cc(-c2ncccc2OC(F)F)cnc1-c1nc2cc(C(F)(F)F)ncc2n1C [Compound P43]
≥ 80%: percent control (mortality, anti-feedant effect or growth inhibition) at 200 ppm [1] | percent effect (mortality or growth inhibition) at 200 ppm [2] | mortality at 200 ppm [3] | mortality at 200 ppm [4] | mortality at 200 ppm [5]

CCS(=O)(=O)c1cc(-c2sccc2C)cnc1-c1nc2cc(C(F)(F)F)ncc2n1C [Compound P48]
≥ 80%: percent control (mortality, anti-feedant effect or growth inhibition) at 200 ppm [1] | percent effect (mortality or growth inhibition) at 200 ppm [2] | mortality at 200 ppm [4]

CCS(=O)(=O)c1cc(-c2cnc3ccccn23)cnc1-c1nc2cc(C(F)(F)F)ncc2n1C [Compound P51]
≥ 80%: percent control (mortality, anti-feedant effect or growth inhibition) at 200 ppm [1] | percent effect (mortality or growth inhibition) at 200 ppm [2] | mortality at 200 ppm [3] | mortality at 200 ppm [5]

CCS(=O)(=O)c1cc(-c2ccc(C)cn2)cnc1-c1nc2cc(C(F)(F)F)ncc2n1C [Compound P55]
≥ 80%: percent control (mortality, anti-feedant effect or growth inhibition) at 200 ppm [1] | percent effect (mortality or growth inhibition) at 200 ppm [2] | mortality at 200 ppm [3] | mortality at 200 ppm [4] | mortality at 200 ppm [5]

CCS(=O)(=O)c1cc(-c2ccc3ccccc3n2)cnc1-c1nc2cc(C(F)(F)F)ncc2n1C [Compound P62]
≥ 80%: percent effect (mortality or growth inhibition) at 200 ppm [2] | mortality at 200 ppm [3] | mortality at 200 ppm [5]

CCS(=O)(=O)c1cc(-c2ncc(N)nc2C)cnc1-c1nc2cc(C(F)(F)F)ncc2n1C [Compound P63]
≥ 80%: percent control (mortality, anti-feedant effect or growth inhibition) at 200 ppm [1] | percent effect (mortality or growth inhibition) at 200 ppm [2] | mortality at 200 ppm [3] | mortality at 200 ppm [5]

CCS(=O)(=O)c1cc(-c2ccsc2C)cnc1-c1nc2cc(C(F)(F)F)ncc2n1C [Compound P68]
≥ 80%: percent control (mortality, anti-feedant effect or growth inhibition) at 200 ppm [1] | mortality at 200 ppm [5]

CCS(=O)(=O)c1cc(-c2ccc(C)s2)cnc1-c1nc2cc(C(F)(F)F)ncc2n1C [Compound P69]
≥ 80%: percent control (mortality, anti-feedant effect or growth inhibition) at 200 ppm [1] | percent effect (mortality or growth inhibition) at 200 ppm [2] | mortality at 200 ppm [3] | mortality at 200 ppm [5]

CCS(=O)(=O)c1cc(-c2ccncc2C#N)cnc1-c1nc2cc(C(F)(F)F)ncc2n1C [Compound P73]
≥ 80%: percent effect (mortality or growth inhibition) at 200 ppm [2] | mortality at 200 ppm [3] | mortality at 200 ppm [4] | mortality at 200 ppm [5]

CCS(=O)(=O)c1cc(-c2ccc(SC)nc2)cnc1-c1nc2cc(C(F)(F)F)ncc2n1C [Compound P75]
≥ 80%: percent effect (mortality or growth inhibition) at 200 ppm [2] | mortality at 200 ppm [3] | mortality at 200 ppm [4] | mortality at 200 ppm [5]

CCS(=O)(=O)c1cc(-c2ccc3[nH]c(=O)[nH]c3c2)cnc1-c1nc2cc(C(F)(F)F)ncc2n1C [Compound P76]
≥ 80%: mortality at 200 ppm [4]

CCS(=O)(=O)c1cc(-c2cc(C)oc2C#N)cnc1-c1nc2cc(C(F)(F)F)ncc2n1C [Compound P78]
≥ 80%: mortality at 200 ppm [3] | mortality at 200 ppm [4]

CCS(=O)(=O)c1cc(-c2cnc(O)nc2O)cnc1-c1nc2cc(C(F)(F)F)ncc2n1C [Compound P79]
≥ 80%: percent effect (mortality or growth inhibition) at 200 ppm [2]

CCS(=O)(=O)c1cc(-c2ncc(OC)cn2)cnc1-c1nc2cc(C(F)(F)F)ncc2n1C [Compound P97]
≥ 80%: percent control (mortality, anti-feedant effect or growth inhibition) at 200 ppm [1] | percent effect (mortality or growth inhibition) at 200 ppm [2] | mortality at 200 ppm [3] | mortality at 200 ppm [5]

CCS(=O)(=O)c1cc(-c2ccnc(C#N)c2)cnc1-c1nc2cc(C(F)(F)F)ncc2n1C [Compound P99]
≥ 80%: percent effect (mortality or growth inhibition) at 200 ppm [2] | mortality at 200 ppm [4] | mortality at 200 ppm [5]

CCS(=O)(=O)c1cc(-c2ccnc(C#N)n2)cnc1-c1nc2cc(C(F)(F)F)ncc2n1C [Compound P107]
≥ 80%: percent control (mortality, anti-feedant effect or growth inhibition) at 200 ppm [1] | percent effect (mortality or growth inhibition) at 200 ppm [2] | mortality at 200 ppm [4]
